Experimental data published in BigSolDB 2.1.

C=C(C)[C@@H]1CC[C@]2(C(=O)O)CC[C@]3(C)[C@H](CC[C@@H]4[C@@]5(C)CC[C@H](O)C(C)(C)[C@@H]5CC[C@]43C)[C@@H]12
solubility (mole fraction)
Conditions	278.2 K	288.2 K	298.2 K	308.2 K	318.2 K
in THF	0.00975	0.0136	0.0206	0.0276	0.0388
in acetone	0.000398	0.000502	0.000598	0.000829	0.00103
in ethanol	0.000651	0.000819	0.00107	0.00135	0.00171
in ethyl acetate	0.00045	0.000515	0.000733	0.000956	0.00124
in ethyl formate	0.0002	0.000272	0.000428	0.000548	0.000786
in isopropanol	0.000765	0.00092	0.0012	0.00149	0.00196
in methanol	0.00019	0.000248	0.000339	0.000461	0.000734
in n-butanol	0.00118	0.00149	0.00192	0.00234	0.003
in n-butyl acetate	0.000824	0.001	0.0012	0.00159	0.00193
in n-hexanol	0.00226	0.00283	0.00324	0.00378	0.00454
in n-pentanol	0.00199	0.00228	0.00266	0.00309	0.00363
in n-propanol	0.00103	0.00137	0.00178	0.00221	0.0028
in sec-butanol	0.000821	0.00113	0.00149	0.00189	0.00245
